One compound from patent publication US7122214B2, “Drynaria extractions for treating osteoporosis and their extraction process” (priority 2000, dated 2006) can be followed below.

The experiment can be described thus: Inventors' investigation of activity of improving osteoporosis (no method given). Conditions: no data or method given.

Each structure is given as a SMILES string.

Turning to `C[C@@H]1O[C@@H](O[C@H]2[C@H](Oc3cc(O)c4c(c3)O[C@H](c3ccc(O)cc3)CC4=O)O[C@H](CO)[C@@H](O)[C@@H]2O)[C@H](O)[C@H](O)[C@H]1O` [naringin], the “activity of improving osteoporosis” value was “has the activity of improving osteoporosis” and the “efficiency in improving osteoporosis relative to the active extracts” value is “lower than the active extracts”.
